Laboratory results reported in patent US7510825B2, “Kits and methods for detection of apoptotic cells” (NST NeuroSurvival Technologies Ltd, priority 2000, dated 2009).

Columns and labels:
[1] = tested on: L5178-S murine lymphoma tumors; test: Quantification of DDC uptake into lymphoma tumor after radiotherapy; assay type: in vivo, mice; conditions: DDC for 2 hours
Protocol: Extraction of DDC uptake compound from cytosolic extracts of organs or tissues for quantitative measurement of DDC uptake: • a. Excising the relevant organ from animals, that were previously injected with DDC. • b. Weighting the organs and homogenize using tissue homogenizer in a cold Buffer-Hepes • c. Following total homogenization, centrifuging the sample at 13,800 rpm for 20 min at 4° C. and transferring the supernatant to a new test tube. • d. Repeating step c and taking the supernatant for quantitative fluorescence evaluation. Alternatively, the supernatant can be stored at −80° C. until use. • e. Placing a sample of 100 ul of organ suspension into each of three wells of a black to microtiter plate. • f. Measuring the fluorescence intensity of DDC (excitation 360 nm, emission 535 nm) using a fluorescence plate reader.
Creating a calibration curve for the fluorescence plate reader using serial dilution of the DDC compound: 1:10, 1:20, 1:40, 1:80, 1:160, 1:320, 1:640, 1:1280.
Murine lymphoma model was established using DBA/2 mice injected subcutaneously with L5178-S murine lymphoma cells. Tumor treatment, by multiply fractionated X-irradiation (3 fractions of 6 Gy/day), started when the tumor reached in diameter 6-8 mm (approximately ten days after tumor implantation). At different time points (24, 48 or 72 hours) following irradiation, mice were injected with DDC for 2 hours. Tumors were harvested from control and radiation-treated animals and processed for quantitative analysis of DDC uptake into the tumor.

[2] = tested on: MCF-7 breast carcinoma tumors; test: Detection by DDC of apoptosis in breast carcinoma after irradiation; assay type: in vivo, mice; conditions: following irradiation (two doses of 8 Gray) vs non irradiated
Protocol: (§1) A. Administration of DDC in-vivo: Injection of 200 μl of DDC intravenously. Following 1-2 hours, animal is sacrificed, and the desired organ is placed in a test tube or on a small plate, suitable for liquid nitrogen freezing. The plate is then covered with an aluminum foil, and transferred to liquid nitrogen. Following 5-30 minutes the specimen is being frozen to −80° C. and kept at −80° C. for at least 16 hr. B. Analysis of the Specimen: • a. Whole organ imaging Ex-vivo whole organ fluorescence imaging may be carried out on freshly excised specimen, that can be analyzed under a stereomicroscope (such as Leica MZ FL III, Leica Switzerland). DDC may be visualized using 360cx and >420cm nm filter set. Emitted fluorescence can be imaged using appropriate camera and software, such as a Leica DC 300F Distal camera and images can be processed and analyzed by Leica QWin Lite software. • b. Histological analysis, from the frozen organ or tissue, 4 μm cryosections are prepared on slides. Analysis of the tissue sections can be performed using a fluorescence microscope with a UV filter characterized by excitation at 360-370 nm (band pass) and emission at 420 nm (barrier filter) In case that staining of the examined tissue is desired, the following procedures can be applied: […]

[3] = tested on: tubular epithelial cells of the septic kidney; test: Focal uptake of DDC in the septic kidney (cecal ligature and perforation); assay type: in vivo, mice; conditions: 24 h after cecal ligature and puncture
Protocol: as §1

[4] = tested on: hepatocytes (liver sections); test: Detection by DDC in vivo of liver-cell apoptosis induced by anti-Fas antibody; design: species or system mice
Protocol: Selective detection of apoptotic cells in vivo has numerous diagnostic and therapeutic clinical applications. […] Treatment of mice with anti-Fas monoclonal agonistic antibody induces apoptosis of hepatocytes, leading to animal death of within several hours. The study included intravenous administration of DDC to anti-Fas-Ab-injected mice, as well as to control, untreated animals. Fluorescence histopathological studies were then performed to evaluate the level of DDC binding.
Five-week-old male BALB/c mice were injected intravenously with 10 μg/animal of purified hamster anti-Fas nAb. Mice were then injected intravenously with 70 mg/Kg of DDC. Injections were performed 30 minutes after antibody treatment. Control animals were injected with DDC only, without antibody administration. All animals were sacrificed three hours after administration of the antibody, followed by organ removal. Liver was sectioned transversely across the mid-portion of each lobe, dipped immediately into liquid nitrogen, and then transferred to −80° C. for 24 hours. Organs were then transferred into OCT solution, and cryosections (5 μm) were prepared. These sections were taken for fluorescent microscopy. Parallel sections were stained with hematoxylin/eosin (H&E), for simultaneous evaluation of the characteristic apoptotic morphology of the cells manifesting DDC binding.

Compound: CN(C)c1cccc2c(S(=O)(=O)NC(CSSCC(NS(=O)(=O)c3cccc4c(N(C)C)cccc34)C(=O)O)C(=O)O)cccc12 (centres unmarked) [DDC]
- DDC uptake into the tumor, times higher over the control mean values ([1]; 24 hours following X-irradiation (3 fractions of 6 Gy/day)): 3.68 times
- DDC uptake into the tumor, times higher over the control mean values ([1]; 48 hours following X-irradiation (3 fractions of 6 Gy/day)): 4.69 times
- DDC uptake into the tumor, times higher over the control mean values ([1]; 72 hours following X-irradiation (3 fractions of 6 Gy/day)): 6.74 times
- uptake of DDC into single cells of the tumor [2]: increased uptake
- DDC staining versus TUNEL staining [3]: detected early apoptotic cells where TUNEL staining is still negative
- identification of focal tubular cell injury ([3]; compared with H&E): clearly identified by DDC staining
- binding of DDC in liver sections ([4]; animals treated with anti-Fas Ab 10 μg/animal, 70 mg/Kg DDC i.v.): marked, specific binding
- binding of DDC in liver sections ([4]; control animals, 70 mg/Kg DDC i.v. only): no significant binding
